Measurements published in PubChem BioAssay (NCI).
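All cell lines were grown in 96-well plates and treated with compound for 48 hours. TGI: concentration producing complete growth inhibition.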

Tests used:
Test in all cases: NCI tumour cell line growth inhibition, 48 h
SNB-78 CNS = tested on: SNB-78 CNS
P388 leukemia = tested on: P388 leukemia
SN12K1 renal = tested on: SN12K1 renal
NCI-H226 lung = tested on: NCI-H226 lung
M19-MEL melanoma = tested on: M19-MEL melanoma
UO-31 renal = tested on: UO-31 renal
P388/ADR leukemia = tested on: P388/ADR leukemia
HOP-18 NSCLC = tested on: HOP-18 NSCLC
HS 578T breast = tested on: HS 578T breast
LXFL 529 NSCLC = tested on: LXFL 529 NSCLC
RXF-631 renal = tested on: RXF-631 renal

SMILES	TGI (SNB-78 CNS)	TGI (P388 leukemia)	TGI (SN12K1 renal)	TGI (NCI-H226 lung)	TGI (M19-MEL melanoma)	TGI (UO-31 renal)	TGI (P388/ADR leukemia)	TGI (HOP-18 NSCLC)	TGI (HS 578T breast)	TGI (LXFL 529 NSCLC)	TGI (RXF-631 renal)
CN(C)C(=O)OCOC(=O)N(C)C	> 100 µM	> 100 µM	> 100 µM	> 100 µM	> 100 µM	> 100 µM	> 100 µM	> 100 µM			
COc1ccnc2c1C(=O)c1nc3ccccc3c3ccnc-2c13						0.894 µM			6.44 µM		
CCCCN1C=CN2c3nc4cc(C)c(C)cc4n3C(C(=O)OC)=C(C(=O)OC)C12 (stereo not drawn)	> 100 µM				> 100 µM	> 100 µM		> 100 µM		> 100 µM	
CN(C)C(=O)NCCN1CCCCCc2ccccc21				> 100 µM		> 100 µM			> 100 µM		
O=c1c(-c2ccccc2)c(SCCCN2CCN(c3cccc(Cl)c3)CC2)n(-c2ccccc2)c(=S)n1-c1ccccc1				> 100 µM					> 100 µM		
CCOC(=O)CC1CCN(C(=O)c2ccccc2)C2Cc3c([nH]c4ccccc34)C12C[N+](=O)[O-] (stereo not drawn)				> 100 µM		> 100 µM			> 100 µM		
COC(=O)c1ccc(/C=C2\N=C(C)OC2=O)cc1				> 100 µM	> 100 µM			> 100 µM		> 100 µM	> 100 µM
